Columns and labels:
liver fat content = conditions: therapy with lomitapide; cited from earlier work
plasma triglycerides = test: In Vivo Pharmacodynamic Assay (reduction in plasma triglycerides); conditions: Mus musculus, po, male C57BL6 mice, gavage 0.1 to 10 mg/kg with 3 mg/kg DGAT1 inhibitor, tyloxapol
Procedure: In Vivo Pharmacodynamic Assay
This assay measures the potency of compounds by measuring the reduction in plasma triglycerides in mice treated with the test compounds compared to control animals that are treated only with the vehicle solution. Male, C57BL6 mice (10-11 weeks old, each approximately 22 g in weight) are used in this assay.
Triglycerides synthesized in the liver are secreted into circulation as a component of the Very Low Density Lipoprotein (VLDL). To prevent degradation of triglycerides in circulation by the Lipoprotein Lipase (LPL), this assay uses IV injection of a detergent, tyloxapol, which inhibits activity of LPL. Since another enzyme, DGAT1, participates in the synthesis of liver triglyceride, a saturating dose of a DGAT1 inhibitor (sodium{trans-4-[4-(4-amino-7,7-dimethyl-7H-pyrimido[4,5-b][1,4]oxazin-6-yl)phenyl]cyclohexyl}acetate, IUPAC ACDLABS naming convention, see Dow et al. Bioorg. & Med. Chem., (2011) 21(20), 6122-6128) is also used in this assay. […]
Collect the blood via cardiac puncture into tube containing the anti-coagulant EDTA. […] Freeze the plasma samples on dry ice until they are to be analyzed. […] Reduction in total triglycerides in the test mice is calculated relative to the concentration of triglycerides in the control mice.

[1] = system: LDL-c, VLDL-c and TG serum concentrations; test: In Vivo Efficacy Model (LDL receptor-deficient mice); conditions: male LDL receptor-deficient mice, fourteen days, serum vs control group
Procedure: This assay measures the potency of compounds by measuring the reduction in low density lipoprotein cholesterol (LDL-c), very low density lipoprotein cholesterol (VLDL-c), and triglycerides (TG). Male, LDL receptor-deficient mice (29 weeks old, each approximately 30 g in weight) are used in this assay.
Feed the mice a standard mouse chow diet for two weeks prior to dosing. Prepare a test solution for oral gavage by suspend the compounds in acacia at 0.3, 1, and 3 mg/mL. Separate the mice into a test group and a control group. Thereafter at the first day of the third week dose the mice in the test group with the test solution for fourteen days, BID. Similarly dose the mice in the control group with just the vehicle without any of the test compound. Four hours after the last dose euthanized the mice with CO2. Immediately collect the blood via cardiac puncture. Isolate the serum to measure serum triglycerides as well as cholesterol in individual lipoprotein fractions. Separate the lipoprotein fractions by known HPLC methods. Determine the cholesterol concentration associated with each lipoprotein fraction by a colorimetric method (Roche Cholesterol/HP Reagent 11875540), using isolated lipoprotein fractions with known cholesterol concentration as standards. Results obtained at the highest dose, 30 mg/kg, BID, expressed as the percentage of change in comparison of the LDL-c, VLDL-c and TG serum concentrations of mice in the test group to those of mice n the control group.
To enable absorption of Example 2 at the 30 mg/kg dose, prepare that compound as 1:1 (w/w) dry mixture with hydroxypropyl methylcellulose prior to addition to acacia vehicle.

human DGAT2 [2] = target: T1, human DGAT2 (Homo sapiens, UniProt Q96PD7); test: Diacylglycerol Acyltransferase 2 (DGAT2) Cell-Based Assay (HepG2, 13C18-oleate incorporation into triolein); set-up: This assay uses human hepatoma cell-line, HepG2, as a source of acyltransferase activity; endogenous in cells; host or cells: HepG2 (human hepatoma); conditions: HepG2 cells, 13C18-oleate incorporation into triolein normalized to POPC; geometric mean
T1 sequence (Q96PD7 1-388): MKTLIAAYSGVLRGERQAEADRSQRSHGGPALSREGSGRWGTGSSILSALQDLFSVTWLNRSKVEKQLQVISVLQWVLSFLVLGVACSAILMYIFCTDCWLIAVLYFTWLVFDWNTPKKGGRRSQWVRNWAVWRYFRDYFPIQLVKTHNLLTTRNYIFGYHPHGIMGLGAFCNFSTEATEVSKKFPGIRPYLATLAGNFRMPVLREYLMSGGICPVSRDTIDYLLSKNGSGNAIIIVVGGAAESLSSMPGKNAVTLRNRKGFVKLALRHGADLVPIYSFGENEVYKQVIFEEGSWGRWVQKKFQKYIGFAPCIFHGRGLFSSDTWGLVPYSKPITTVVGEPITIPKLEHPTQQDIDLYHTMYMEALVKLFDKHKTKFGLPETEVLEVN
Procedure: Diacylglycerol Acyltransferase 2 (DGAT2) Cell-Based Assay
The inhibitory activity of compounds against human DGAT2 in a cell environment is evaluated in this assay. This assay uses human hepatoma cell-line, HepG2, as a source of acyltransferase activity.
HepG2 cell line is a commonly used model for metabolic reactions that occur in human hepatocytes in vivo. Synthesis of triglyceride in this cell line is followed by measuring incorporation of isotopically labeled oleate into triolein (a triglyceride with 3 oleoyl moieties).
Dispense the HepG2 cells into a 96-well microplate, which has been previously coated with Poly-D-lysine, in an amount of 50,000 cells/well in 100 μL Minimal Essential Media (MEM) with 10% Fetal Bovine Serum (FBS). Incubate the cells for 16 hr at 37° C. Replace the cell culture medium with MEM containing 2% Bovine Serum Albumin Dissolve the test compound in 0.5% DMSO and prepare serial dilutions in half-log increments. Add the serially diluted test compound into separate wells. Incubate for 0.5 hr at 37° C. Thereafter replace the cell culture medium with a medium of the same composition, but which includes 50 μM ^13C18-oleate and 300 μM hydropropyl-β-cyclodextrine. Incubate for an additional 4 hr at 37° C. Discard the cell culture medium by flipping the microplate over thereby draining the wells and then soaking up any residual media from the wells with a paper towel. […]

human DGAT2 [3] = target: T1, human DGAT2; test: Diacylglycerol Acyltransferase 2 (DGAT2) Biochemical Assay; set-up: FLAG (N); made in house; host or cells: insect SF9 cells; conditions: recombinant human DGAT2 (FLAG tag, SF9), 14C oleoyl-CoA, 1 hr RT; geometric mean
Procedure: Diacylglycerol Acyltransferase 2 (DGAT2) Biochemical Assay
The in vitro inhibitory activity of compounds against human DGAT2 is evaluated in this assay. The assay uses recombinant human DGAT2 with a FLAG tag at the amino terminus, expressed in genetically engineered insect SF9 cells, and purified through affinity chromatography.
DGAT2 catalyzes transfer of an acyl moiety from acyl-Coenzyme A onto diacylglycerol, to form triacylglycerol. In this particular embodiment of the assay oleate is used as the acyl moiety that is transferred. To facilitate miscibility of all lipid components, all lipids used in the assay contain oleyl moiety as the only acyl group. […]
Mix SUV suspensions and compound solution with other components of the assay to achieve the following concentration of individual ingredients: TrisHCl (pH 7.5, 150 mM), sucrose (250 mM), MgCl2 (5 mM), dithiothreitol (DTT) (0.5 mM), oleoyl coenzyme A (oleoyl-CoA) (12 μM), 1-^14C oleoyl coenzyme A (oleyl-CoA-^14C) (8 μM), dioleoyl glycerol (DOG) (0.6 mM), and dioleoyl phosphatidylcholine (DOPC) (1.4 mM), DGAT2 protein (0.5 nM), DMSO (1%, v/v), with test compound concentration within a 1 nM to 100 μM range, in 30 μl total volume. […] Measure the radioactivity using a Perkin-Elmer TopCount instrument. […] Calculate the degree of inhibition of DGAT2 by measuring the radioactivity at 10 different concentrations for each compound. […]

[4] = 30 mg/kg BID oral gavage in acacia
[5] = 30 mg/kg BID, compound as 1:1 (w/w) dry mixture with hydroxypropyl methylcellulose in acacia

IC50 (human DGAT2 [2])	IC50 (human DGAT2 [3])	Structure (SMILES)	increase in the liver fat content (liver fat content)	ED50 (plasma triglycerides)	% change LDL-c [1, 4]	% change Triglycerides [1, 4]	% change VLDL-c [1, 4]	% change LDL-c [1, 5]	% change Triglycerides [1, 5]	% change VLDL-c [1, 5]
		O=C(NC1CCN(CCCCC2(C(=O)NCC(F)(F)F)c3ccccc3-c3ccccc32)CC1)c1ccccc1-c1ccc(C(F)(F)F)cc1 [lomitapide]	8 fold							
150 nM	91 nM	CNS(=O)(=O)Cc1ccc(Oc2cc(CNc3ncc(Cl)cn3)nc(C)n2)cc1 [Example 1, 1-[4-[6-[[(5-Chloropyrimidin-2-yl)amino]methyl]-2-methyl-pyrimidin-4-yl]oxyphenyl]-N-methyl-methanesulfonamide]		0.29 mg/kg	−51%	−63%	−75%			
150 nM	120 nM	Cc1nc(CNc2ncc(Cl)cn2)cc(Oc2ccc(CS(N)(=O)=O)cc2)n1 [Example 2]		0.27 mg/kg				−55%	−72%	−82%
